{
  "source": "patent US11672792B2",
  "about": "“Topical formulations comprising montelukast and combinations with mussel adhesive proteins” (ENLITISA (SHANGHAI) PHARMACEUTICAL CO., LTD, priority 2017, dated 2023)",
  "key": {"burn wounds": {"test_system": "burn wounds", "test": "Burn Injury Model (Example 3)", "type": "in vivo, Sprague-Dawley rats", "settings": "per wound: dexamethasone 0.4 mg, MAP 0.25 mg, montelukast 0.25 mg, once daily topically", "experimental": "Healthy adult male Sprague-Dawley rats weighing between 200 and 300 g were supplied by Beijing Vital River Laboratory Animal Technology Co. Ltd, Beijing, China.\nPrior to any experiments being conducted, rats were housed under standardized conditions (at a constant temperature or 22 t 2° C., with alternating 12 hour periods of light and darkness) and were fed on a standard rat diet with water.\nRats were anaesthetised with 3% chloral hydrate (Sinopharm Chemical Reagent Co., Ltd., Shanghai, China) (1 mL/100 g of body weight) administered by intraperitoneal injection. The dorsal trunk was of each rat was shaved with an electric razor and surgically prepared with 70% alcohol scrubs. A constant temperature and constant pressure scald instrument (YLS-5Q, Shandong Academy of Medical Sciences, China) was employed, as this allows for a precise measurement of pressure applied to the skin surface. Thermal injury was induced by heating a stylus (with a surface area of 4 cm^2) to 80° C. and applying the stylus to the surface of the skin for a contact time of 18 seconds. 500 grams of pressure was applied during the operation. In this way, four two-degree shallow to deep burn wounds were created on each rat. Test compounds or vehicle were applied to the surface of the wound.\nRats were kept in separate cages but were allowed to move freely throughout the test period. In the first treatment, 500 μL of the relevant solutions was applied about 3 to 4 hours after the surgery (Day 0) and then once daily for the next 7 days. Gross appearances of the scald wounds were observed every day. Photographs were taken at 48 hours (Day 2), and on the 4th (Day 4) and 7th (Day 7) days with a digital camera to compare wound healing. The skin lesions were evaluated for the following criteria: blistering, swelling, redness, crust, bleeding, secretion, granulation tissue and scar tissue. The degree of healing was expressed as the wound contraction ratio (WCR): WCR=(A0−At)/A0×100% in which A0 and At refer to the initial area and the wound area at time t, respectively.\nOn Days 2, 4 and 7 after application of the burn, two rats were sacrificed and the burned skins excised. The freshly isolated skin was fixed in 10% neutral buffered formalin (which contained 4% of formaldehyde). This was used for histological embedding, staining and immunohistochemical studies.\nAdministered solutions were made up substantially as described in Example 1 above.\nBurn scores are shown in Table 12 below and are illustrated in FIG. 3. Skin samples were sent to the Department of Pathology of Nanjing Hospital of Chinese Medicine, China. Samples were fixed and embedded, and histological sections were cut and stained. The stained sections were examined under a light microscope and pictures were taken. All pictures were interpreted and scored according to the following criteria: first degree—the epidermis was damaged and the substrate remains intact (score 1 point); superficial second degree—the epidermis was completely damaged and the papillary layer was damaged (1.5 points): deep second degree—the dermis was injured into the reticular layer and retain some dermis (2.5 points); and third degree—the dermis was completely damaged and the muscles and/or bones affected (3 points)."}, "[1]": {"test": "pH and stability of montelukast formulations", "settings": "PEG-based creams or ointments; not prone to oxidation"}, "[2]": {"test_system": "full thickness skin wounds in diabetic mice", "test": "Diabetic Wound Model (Example 7)", "type": "in vivo, db/db mice (C57BL/KsJ-db/db)", "settings": "Day 6, Mon 100 μg/each", "experimental": "A similar experiment with essentially the same protocol to that described in Example 6 above was carried out on 8 to 12 week-old male db/db mice (C57BL/KsJ-db/db, with a body weight of 35-45 g/mouse; supplied by Changzhou Cvens Experimental Animal Co. Ltd.).\nAn EMS skin biopsy punch with a […] diameter was used to make wounds.\nDifferent drugs were administrated topically at 20 μL/wound, once daily from Day 0 to Day 18. The model group was given same amount of normal saline.\nSamples were taken on Day 6, Day 12 and Day 18 post-wound inflictions.\nHistological specimens were analyzed and skin regeneration, fibroblast proliferation, collagen regeneration scores (Masson score) and inflammation scores were estimated as follows.\nThe HE and Masson stained slices were observed under an optical microscope and were scored (1, 2 or 3 points) according to the following criteria. […]\nFibroblast proliferation was scored as the following criteria:\nInflammation was scored as the following criteria:\nCollagen deposition score criterion for the Masson stained sample were as follows. […] No clear blue staining was given 0 points; blue fiber appearing in a scattered pattern was scored as 1 points; if more blue fiber appeared, this was scored as 2 points, and a diffuse blue colour was given 3 points."}, "[3]": {"settings": "for Montelukast amount in skin sample: unscalded intact skin"}, "in vivo": {"test": "in vivo", "settings": "Sprague Dawley, rat, skin (unscalded intact, full thickness), topical, 1 g montelukast cream"}},
  "note": "Read-outs that look alike come from different tables or passages of the source.",
  "data": [
    {"smiles": "C[C@@H]1C[C@H]2[C@@H]3CCC4=CC(=O)C=C[C@]4(C)[C@@]3(F)[C@@H](O)C[C@]2(C)[C@@]1(O)C(=O)CO", "note": "[Dexamethasone, dexamethasone]", "values": [
      {"measurement": "Burn score", "setting": "burn wounds; Day 2", "result": 2.25},
      {"measurement": "Burn score", "setting": "burn wounds; Day 4", "result": 2.64},
      {"measurement": "Burn score", "setting": "burn wounds; Day 7", "result": 2.50}
    ]},
    {"smiles": "CC(C)(O)c1ccccc1CC[C@@H](SCC1(CC(=O)O)CC1)c1cccc(/C=C/c2ccc3ccc(Cl)cc3n2)c1", "note": "[Mon, Montelukast sodium]", "values": [
      {"measurement": "stability of formulation (in words)", "setting": "[1]", "result": "surprisingly stable"},
      {"measurement": "Burn score", "setting": "burn wounds; Day 2", "result": 1.50},
      {"measurement": "Burn score", "setting": "burn wounds; Day 4", "result": 2.38},
      {"measurement": "Burn score", "setting": "burn wounds; Day 7", "result": 2.00},
      {"measurement": "increase of VEGF production in the wounded tissue in comparison with model group", "setting": "[2]", "result": "about 74%"},
      {"measurement": "VEGF content, Mean", "setting": "[2]; wound tissue, rhEGF 100 IU/each, once daily topically", "result": 5.47, "unit": "pg/g"},
      {"measurement": "Montelukast amount in skin sample", "setting": "[3]; 0 h, 1 g montelukast cream topically", "result": 0, "unit": "g"},
      {"measurement": "Montelukast amount in skin sample", "setting": "[3]; 1 h", "result": 2.53, "unit": "g"},
      {"measurement": "Montelukast amount in skin sample", "setting": "[3]; 2 h", "result": 5.44, "unit": "g"},
      {"measurement": "Montelukast amount in skin sample", "setting": "[3]; 3 h", "result": 0.89, "unit": "g"},
      {"measurement": "Montelukast amount in skin sample", "setting": "[3]; 6 h", "result": 0.90, "unit": "g"},
      {"measurement": "Montelukast amount in skin sample", "setting": "[3]; 8 h", "result": 3.54, "unit": "g"},
      {"measurement": "time of montelukast peak in skin", "setting": "[3]; scalded skin", "result": 2, "unit": "h"},
      {"measurement": "concentration at 0 h", "setting": "in vivo", "result": 0, "unit": "ng/g"},
      {"measurement": "concentration at 1 h", "setting": "in vivo", "result": 36700, "unit": "ng/g"},
      {"measurement": "concentration at 2 h", "setting": "in vivo", "result": 68000, "unit": "ng/g"},
      {"measurement": "concentration at 3 h", "setting": "in vivo", "result": 13400, "unit": "ng/g"},
      {"measurement": "concentration at 6 h", "setting": "in vivo", "result": 15600, "unit": "ng/g"},
      {"measurement": "concentration at 8 h", "setting": "in vivo", "result": 55300, "unit": "ng/g"}
    ]}
  ]
}
